The values that follow are results of earlier work, collected in patent publication US11191866B2, “Dressing enabling the controlled and prolonged release of metformin” (Urgo Recherche Innovation et Developpement, priority 2016, dated 2021).

The conditions of the data set: rats; radioactively marked, deposited on a wound in a gel.

As to `CN(C)C(=N)N=C(N)N` [metformin], the “time remaining at the local level on the wound” value is recorded as “remained for a very short period of time at the local level”.
